Assay results as given in US4598070A, “Tripamide and cyclodextrin inclusion compound” (Eisai Co., Ltd., priority 1983, dated 1986).
Converted amounts (≈) assume the structure as drawn. Like-named read-outs stand apart in the source and are kept apart here.

Test: Solubility of tripamide in water, Liquid I or Liquid II of the Japanese Pharmacopeia (37° C., 5 days, absorbancy method)
Assay type: physicochemical
Settings: for solubility at 120 h: 37° C., 5 days, as tripamide, Experiment 2
Description: The inclusion compound prepared in accordance with the process described in Example 1 was used as a sample. This sample was prepared by the reaction of 1 mole of tripamide and 3 moles of β-cyclodextrin. For purpose of comparison, tripamide per se was used.
The sample was accurately weighed 100 mg as tripamide and mixed with water, Liquid I of the Japanese Pharmacopeia or Liquid II of the Japanese Pharmacopeia. The mixture was stirred at 37° C. in a warm bath for 5 days. Tripamide, dissolved in the solution, was measured by the absorbancy method.
That is, each of the tripamide solutions in water, Liquid I of the Japanese Pharmacopeia and Liquid II of the Japanese Pharmacopeia was filtered using a millipore filter of 1.2 μm and 1 ml each of the solutions after filtration was taken out. In the case of the solution using Liquid I of the Japanese Pharmacopeia, the solution was further diluted with Liquid I of the Japanese Pharmacopeia to make a 100 ml solution and 5 ml taken out of the resulting solution was further diluted to 50 ml with a 0.1N hydrochloric acid-methanol solution followed by measurement at 244 nm. In the case of each of the solutions in water and Liquid II of the Japanese Pharmacopeia, the solution was diluted to 100 ml with Liquid II of the Japanese Pharmacopeia followed by measurement at 233 nm. […]

solubility at 120 h (Water, read-out: Solubility (mg/ml), Water): 0.0094 mg/mL (≈ 25.4 µM)
solubility at 120 h (jp liquid i, pH 1.2, Liquid I of the Japanese Pharmacopeia, pH about 1.2, read-out: Solubility (mg/ml), Japanese Pharmacopeia Liquid I): 0.349 mg/mL (≈ 944 µM)
solubility at 120 h (jp liquid ii, pH 7.5, Liquid II of the Japanese Pharmacopeia, pH about 7.5, read-out: Solubility (mg/ml), Japanese Pharmacopeia Liquid II): 0.0144 mg/mL (≈ 38.9 µM)
solubility in water, Liquid I and Liquid II (in words) (water, Liquid I and Liquid II of the Japanese Pharmacopoeia, sample for comparison): low
SMILES: NS(=O)(=O)c1cc(C(=O)NN2C[C@@H]3[C@@H]4CC[C@@H](C4)[C@@H]3C2)ccc1Cl [Tripamide, N-(4-A2a-endo-tricyclo[5.2.1.0^2.6. ]decan-4-yl)-4-chloro-3-sulfamoylbenzamide]
solubility in water (in words) (water, background statement): soluble in water only with extreme difficulty
